From PMC4641600, “Novel Activities of Select NSAID R-Enantiomers against Rac1 and Cdc42 GTPases” (PLoS ONE, 2015)
Structures can show the parent of a compound that is named as a salt. Values belong to the molecule of their own block, whether it stands above or below them.

Columns and labels:
H-Ras wt = H-Ras wt (Homo sapiens, UniProt P01112); test: Dose response, BODIPY-GTP binding; settings: 10 nM to 100 µM
Procedure: (§1) For multiplex analyses of small GTPases, 4 μm diameter glutathione-beads (GSH-beads) distinguished by seven different intensities of red fluorescence were used according to our previously described protocols. The GST-GTPases included the following eight Ras-related small GTPases: Rab2 wt, Rab7 wt, Cdc42 wt, Cdc42Q61L activating mutant, H-Ras wt, H-RasG12V, Rac1 wt and Rac1Q61L activating mutant. Briefly, Prestwick Chemical Library® compounds were tested at 10 μM compound and 1% DMSO final concentrations. After a 10 min pre-incubation with the compound BODIPY- FL-GTP (100 nM final) was added to each well and bead associated fluorescence was measured. Sample analysis was conducted with a HyperCyt® high throughput flow cytometry platform. Flow cytometric light scatter at 488 nm and fluorescence emission at 530 +/− 20 nm (FL1) and 665 +/− 10 nm (FL8) were collected on a Cyan ADP flow cytometer (Beckman Coulter, Fullerton, CA). IDLQuery software was used to determine the compound activity in each well. Gating based on forward scatter (FS) and side scatter (SS) parameters was used to identify singlet bead populations. Gating based on FL8 emission distinguishes the beads coated with different proteins, and the median FL1 fluorescence per bead population were calculated. A compound was considered a “potential active” if the change in BODIPY-FL-GTP binding differed greater than 20% from that measured in DMSO treated controls.
(§2) Test compounds identified for follow-up after the primary screen were tested at dilutions ranging from 10 nM to 100 μM final concentration against individual GTPases in multiplex and single-plex assays. Compounds tested in dose response assays were serially diluted 1:3 a total of eight times from a starting concentration of 10 mM giving a 9-point dilution series in DMSO.
(§3) bConfirmatory screens entailed dose response assays conducted in a multiplex format with eight GTPases tested as for primary screen. BODIPY-GTP-binding activity was
(§4) measured in the presence of 10 nM to 100 µM of each of 11 test compounds (4 primary screen hits and 7 additional NSAIDs considered to have chemical similarity to GTPase
(§5) active compounds). GST-GFP coated beads served as a control to detect non-specific dissociation or denaturation caused by compound addition–none of the tested NSAIDs had
(§6) any effect on bead-GST-protein binding. EC50 values were determined using Prism to determine dose response fits as shown in Figure 1 of main text; fits have R2 > 0.9. Active
(§7) compounds based on same definition used as in primary screena. […]

H-RasG12V = H-RasG12V (Homo sapiens, UniProt P01112, G12V); test: Dose response, BODIPY-GTP binding; settings: 10 nM to 100 µM
Procedure: as §1, §2, §3, §4, §5, §6, §7
(§8) ‡A well-characterized selective Cdc42 inhibitor served as a positive control.

[1] = molecular target: Cdc42Q61L activating mutant (Homo sapiens, UniProt P60953, Q61L); test: Dose response, BODIPY-GTP binding; settings: 10 nM to 100 µM; read-out: Cdc42 (act) EC50
[2] = test system: Rab2 wt, Rab7 wt, Cdc42 wt, Cdc42Q61L, H-Ras wt, H-RasG12V, Rac1 wt and Rac1Q61L; test: Primary multiplex screen, BODIPY-FL-GTP binding on bead-bound GTPases (flow cytometry); settings: for primary screen outcome: 10 μM compound; for Primary Screen Hit: single dose 10 µM, change in BODIPY-GTP binding on any one GTPase
Cdc42 wt = Cdc42 wt (Homo sapiens, UniProt P60953); test: Dose response, BODIPY-GTP binding; settings: 10 nM to 100 µM
[3] = test system: Rac1 membrane localization; test: Rac1 immunolocalization, OvCa433 cells; format: cell-based, human; settings: for Rac PM Localiz.: immunofluorescence quantified using ImageJ; for Rac1 membrane localization: 300 μM
Rac1 wt = Rac1 wt (Homo sapiens, UniProt P63000); test: Dose response, BODIPY-GTP binding; settings: 10 nM to 100 µM
Cdc42 [4] = molecular target: T1, Cdc42 (Homo sapiens, UniProt P60953); test: G-trap flow cytometric effector binding assay, HeLa cells; format: cell-based; settings: ketorolac enantiomers, EGF stimulation, read-out: EC50 against Cdc42
T1 construct: endogenous in cells; host or cells: HeLa

human COX-1 = molecular target: T2, human COX-1 (Homo sapiens, UniProt P23219); test: Cyclooxygenase assay (CEREP), PGE2 formation; format: biochemical
T2 construct: purchased CEREP Laboratories (contract assay); host or cells: Sf-9

Rac1 [5] = molecular target: T3, Rac1 (Mus musculus, UniProt P63001); test: GLISA, Swiss 3T3 cells; format: cell-based; settings: at 50 μM
T3 construct: endogenous in cells; host or cells: Swiss 3T3

human COX-2 = molecular target: T4, human COX-2 (Homo sapiens, UniProt P35354); test: Cyclooxygenase assay (CEREP), PGE2 formation; format: biochemical; settings: recombinant enzyme, 4 μM arachidonic acid
T4 construct: purchased CEREP Laboratories (contract assay); host or cells: Sf-9
T4 sequence (P35354 18-604): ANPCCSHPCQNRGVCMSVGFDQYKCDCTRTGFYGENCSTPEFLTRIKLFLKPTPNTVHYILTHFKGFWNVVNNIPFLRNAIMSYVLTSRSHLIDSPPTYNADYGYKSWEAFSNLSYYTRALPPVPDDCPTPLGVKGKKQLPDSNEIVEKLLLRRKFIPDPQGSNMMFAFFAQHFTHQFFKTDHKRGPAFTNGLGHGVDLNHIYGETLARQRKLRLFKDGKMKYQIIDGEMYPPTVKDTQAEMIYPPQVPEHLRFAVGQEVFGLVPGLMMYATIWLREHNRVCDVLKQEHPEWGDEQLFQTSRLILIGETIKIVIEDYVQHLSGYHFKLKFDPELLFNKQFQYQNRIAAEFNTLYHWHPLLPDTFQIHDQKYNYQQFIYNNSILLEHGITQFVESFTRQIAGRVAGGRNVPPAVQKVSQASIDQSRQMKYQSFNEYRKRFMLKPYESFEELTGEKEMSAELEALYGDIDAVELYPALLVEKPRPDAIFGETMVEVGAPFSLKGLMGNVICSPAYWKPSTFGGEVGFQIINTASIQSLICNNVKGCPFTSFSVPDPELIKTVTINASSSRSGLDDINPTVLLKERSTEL

[6] = test system: migration Rac1/Cdc42 dependent; test: Migration IC50 (Table F); format: cell-based; settings: ketorolac, calculated by GraphPad Prism5; read-out: IC50 migration Rac1/Cdc42 dependent (est)
Rac1 [7] = molecular target: T5, Rac1 (Homo sapiens, UniProt P63000); test: G-trap flow cytometric effector binding assay, HeLa cells; format: cell-based; settings: ketorolac enantiomers
T5 construct: endogenous in cells; host or cells: HeLa

Cdc42 [8] = molecular target: T6, Cdc42 (Mus musculus, UniProt P60766); test: GLISA, Swiss 3T3 cells; format: cell-based; settings: at 10 μM
T6 construct: endogenous in cells; host or cells: Swiss 3T3

Ras-related GTPases = test: Confirmatory dose response assays on eight Ras-related GTPases; format: binding; settings: for activity against the GTPases in confirmatory dose response assays (words): 10 nM to 100 µM
Procedure: as §1, §2, §3, §4, §5, §6, §7, §8

Rab7 = Rab7 (Homo sapiens, UniProt P51149); test: Dose response, BODIPY-GTP binding; settings: 10 nM to 100 µM
[9] = molecular target: Rac1Q61L activating mutant (Homo sapiens, UniProt P63000, Q61L); test: Dose response, BODIPY-GTP binding; settings: 10 nM to 100 µM; read-out: Rac1 (act) EC50
Rab2 = Rab2 (Homo sapiens, UniProt P61019); test: Dose response, BODIPY-GTP binding; settings: 10 nM to 100 µM
[10] = test system: Rac1 and Tiam1 protein levels; test: Immunoblot of protein levels; format: cell-based, human
Procedure: Cells were stimulated with EGF at a final concentration of 1 nM for 10 min. Cells were lysed in a RIPA buffer consisting of 50 mM Tris pH 7.4, 1% NP-40, 0.25% sodium deoxycholate, 150 mM NaCl, 1 mM EDTA, 1 mM PMSF, 1 mM sodium vanadate, 10 mM sodium fluoride, 1 μg/mL each of pepstatin, aprotinin and leupeptin, 10 mM sodium pyrophosphate and 10 mM beta-glycerophosphate.
N = 3. See also Figure D in S1 File for time dependent loss of Rac1 membrane localization. N = 3 (B) Quantification of image intensity using Image J of 3 representative confocal images as shown in panel (A) containing 20–30 cells/field normalized to actin and untreated controls. (C) Western blot analyses of lysates from cells treated with 300 μM compound as indicated for 24 h as compared to untreated controls. […] Blots were probed for Tiam1 (200 kDa), GAPDH (37 kDa), Rac1 (20 kDa), as a loading control. (D) Quantification of image intensity using Image J. Each marker was normalized to GAPDH and untreated controls. N = 3.

[11] = test system: Tiam1 membrane localization; test: Tiam1 immunolocalization, OvCa433 cells; format: cell-based, human
Procedure: OvCa433 were plated on coverslips, treated with 300 μM NSAIDs for 1 h, fixed with 3% paraformaldehyde and immunostained for Rac1 or Tiam1. Actin was visualized with rhodamine phalloidin from Invitrogen (F432). Cells were imaged on a Zeiss LSM510 using a 63x objective and quantified using Image J.
Rac1 and Tiam1 antibodies were confirmed in our hands to recognize single protein species of the predicted molecular weight by immunoblot.

[12] = IV dose of 30 mg; cited from earlier work
[13] = assays performed with 0.1% DMSO

Rab2, sequence (P61019 whole entry, species assumed): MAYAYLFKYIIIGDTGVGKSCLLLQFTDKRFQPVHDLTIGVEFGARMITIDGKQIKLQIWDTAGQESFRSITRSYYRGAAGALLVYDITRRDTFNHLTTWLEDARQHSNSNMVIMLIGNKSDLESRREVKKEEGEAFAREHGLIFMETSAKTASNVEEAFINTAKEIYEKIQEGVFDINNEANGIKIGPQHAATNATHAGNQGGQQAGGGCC
Rab7, sequence (P51149 whole entry, species assumed): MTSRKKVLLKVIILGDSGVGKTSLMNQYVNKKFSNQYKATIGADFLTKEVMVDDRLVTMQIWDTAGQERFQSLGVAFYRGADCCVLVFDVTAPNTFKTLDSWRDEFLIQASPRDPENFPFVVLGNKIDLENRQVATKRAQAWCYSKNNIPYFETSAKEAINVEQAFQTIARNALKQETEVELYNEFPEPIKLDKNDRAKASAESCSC
T2 sequence (P23219 24-599): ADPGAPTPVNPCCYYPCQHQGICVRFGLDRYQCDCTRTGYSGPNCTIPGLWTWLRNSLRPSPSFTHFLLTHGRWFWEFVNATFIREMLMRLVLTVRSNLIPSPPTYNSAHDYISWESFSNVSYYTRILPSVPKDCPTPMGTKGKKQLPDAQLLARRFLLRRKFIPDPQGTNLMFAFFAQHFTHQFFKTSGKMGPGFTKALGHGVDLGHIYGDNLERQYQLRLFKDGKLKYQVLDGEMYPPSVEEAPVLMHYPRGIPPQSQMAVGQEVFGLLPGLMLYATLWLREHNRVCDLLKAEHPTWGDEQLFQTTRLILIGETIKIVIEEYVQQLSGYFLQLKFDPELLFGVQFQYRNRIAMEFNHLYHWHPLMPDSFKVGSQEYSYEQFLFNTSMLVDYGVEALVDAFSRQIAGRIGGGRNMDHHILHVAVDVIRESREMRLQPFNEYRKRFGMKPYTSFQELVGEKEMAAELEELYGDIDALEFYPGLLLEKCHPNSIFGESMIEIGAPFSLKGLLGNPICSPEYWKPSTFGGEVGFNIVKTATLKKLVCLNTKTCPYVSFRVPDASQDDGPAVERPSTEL
Cdc42Q61L activating mutant, sequence (P60953 whole entry Q61L): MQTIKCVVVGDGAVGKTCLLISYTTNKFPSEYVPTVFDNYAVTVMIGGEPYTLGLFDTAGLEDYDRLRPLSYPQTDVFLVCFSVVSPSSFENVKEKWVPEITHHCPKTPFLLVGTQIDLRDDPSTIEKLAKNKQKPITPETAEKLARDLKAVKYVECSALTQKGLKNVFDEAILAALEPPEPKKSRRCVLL
Cdc42 wt, sequence (P60953 whole entry): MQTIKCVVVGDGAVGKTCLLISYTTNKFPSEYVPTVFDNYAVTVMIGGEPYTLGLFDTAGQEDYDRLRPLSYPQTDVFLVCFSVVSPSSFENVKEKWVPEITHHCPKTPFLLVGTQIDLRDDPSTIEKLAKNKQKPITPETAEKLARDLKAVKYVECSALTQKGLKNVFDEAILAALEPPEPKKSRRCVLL
T6 sequence (P60766 whole entry): as the sequence (P60953 whole entry) above
T1 sequence (P60953 whole entry): as above

SMILES: CC(C)Cc1ccc([C@H](C)C(=O)O)cc1 [S-(+)-Ibuprofen, (S)-(+)-Ibuprofen]
- H-Ras wt EC50 (H-Ras wt): inactive
- H-Ras (act) EC50 (H-RasG12V): inactive
- EC50 [1]: 6.41 µM
- primary screen outcome [2]: positive
- Primary Screen Hit [2]: Active
- Cdc42 wt EC50 (Cdc42 wt): inactive
- Rac PM Localiz. [3, 13]: 78%

- Primary Screen Hit [2]: Inactive
SMILES: CC(=O)Nc1ccc(O)cc1 [Acetaminophen]

- Primary Screen Hit [2]: Inactive
SMILES: Cc1ccc(C(=O)c2ccc(CC(=O)O)n2C)cc1 [Tolmetin sodium salt dihydrate]

- Primary Screen Hit [2]: Inactive
SMILES: CC(C(=O)O)c1ccc(C(=O)c2cccs2)cc1 (centres unmarked) [Suprofen]

SMILES: CC(C(=O)O)c1ccc(C(=O)c2ccccc2)s1 (centres unmarked) [Tiaprofenic acid]
- Primary Screen Hit [2]: Inactive

- Primary Screen Hit [2]: Inactive
SMILES: CC(=O)Oc1ccccc1C(=O)Oc1ccccc1C(=O)O [Acetylsalicylsalicylic acid]

SMILES: CC(C(=O)O)c1cccc(C(=O)c2ccccc2)c1 (centres unmarked) [Ketoprofen]
- Rac1 membrane localization [3]: did not alter
- Rac PM Localiz. [3, 13]: 45%

- primary screen outcome [2]: positive
- Primary Screen Hit [2]: Active
- Rac1 wt EC50 (Rac1 wt): Inactive
SMILES: CC(C(=O)O)c1cccc(Oc2ccccc2)c1 (centres unmarked) [Fenoprofen]
- Rac1 membrane localization [3]: did not alter

SMILES: O=C(O)Cc1ccccc1Nc1c(Cl)cccc1Cl [Diclofenac sodium]
- Primary Screen Hit [2]: Inactive

- EC50 (Cdc42 [4]): > 10 µM
- eudismic ratio (EC50/EC50) (human COX-1; for cyclooxygenases, S-enantiomer relative to R-enantiomer): 100
- IC50 (human COX-1; recombinant enzyme, 4 μM arachidonic acid): < 0.01 µM
- inhibition of Rac1 (Rac1 [5]): non-inhibitory
- IC50 (human COX-2): 0.085 µM
- IC50 [6]: > 100 µM
- efficacy against Rac1 (Rac1 [7]): < 50%
- inhibition of Cdc42 (Cdc42 [8]): non-inhibitory
SMILES: O=C(c1ccccc1)c1ccc2n1CC[C@@H]2C(=O)O [S-ketorolac]

- H-Ras wt EC50 (H-Ras wt): inactive
- H-Ras (act) EC50 (H-RasG12V): inactive
- EC50 [1]: 48.6 µM
- EC50 (Cdc42 wt): > 100 µM
- Rab7 EC50 (Rab7): inactive
- EC50 [9]: 53 µM
- Rab2 EC50 (Rab2): inactive
- EC50 (Rac1 wt): 54 µM
SMILES: CSc1ccc(/C=C2/C(C)=C(CC(=O)O)c3cc(F)ccc32)cc1 [Sulindac sulfide]
- activity against the GTPases in confirmatory dose response assays (words) (Ras-related GTPases): varying activity levels

SMILES: CC(C)Cc1ccc(C(C)C(=O)O)cc1 (centres unmarked) [ibuprofen]
- Rac1 membrane localization [3]: did not alter

SMILES: Cc1onc(-c2ccccc2)c1-c1ccc(S(N)(=O)=O)cc1 [Valdecoxib]
- activity against the GTPases in confirmatory dose response assays (words) (Ras-related GTPases): inactive

SMILES: O=C(O)c1cc(-c2ccc(F)cc2F)ccc1O [Diflunisal]
- Primary Screen Hit [2]: Inactive

SMILES: COc1ccc2cc([C@H](C)C(=O)O)ccc2c1 [S-naproxen]
- H-Ras wt EC50 (H-Ras wt): inactive
- H-Ras (act) EC50 (H-RasG12V): inactive
- times less active than the R-enantiomer (Ras-related GTPases): 10–20 times
- activity against the GTPases in confirmatory dose response assays (words) (Ras-related GTPases): varying activity levels
- Rab7 EC50 (Rab7): inactive
- total Rac1 or Tiam1 protein levels ([10]; 300 μM, 24 h, immunoblot): did not alter
- Rac protein expression ([10]; immunoblot analysis): No change
- Rab2 EC50 (Rab2): inactive
- Rac1 membrane localization [3]: no effect
- Rac PM Localiz. [3]: 87%
- Tiam1 membrane localization ([11]; 300 μM): only slightly reduced
- Tiam1 GEF PM localiz. ([11]; immunofluorescence quantified using ImageJ): 65%

SMILES: Cc1c(Cl)cccc1Nc1ccccc1C(=O)O [Tolfenamic acid]
- Primary Screen Hit [2]: Inactive

- IC50 [6]: 34 µM
- effect on Cdc42 relative to R-ketorolac (Cdc42 [8]): approximately half the effect
SMILES: O=C(c1ccccc1)c1ccc2n1CCC2C(=O)O (racemic) [racemic ketorolac, ketorolac]
- Cmax [12]: 13.7 µM

- Primary Screen Hit [2]: Inactive
SMILES: CC1=C(CC(=O)O)c2cc(F)ccc2/C1=C\c1ccc([S+](C)[O-])cc1 (centres unmarked) [Sulindac]

SMILES: Cc1ccc(-c2cc(C(F)(F)F)nn2-c2ccc(S(N)(=O)=O)cc2)cc1 [Celecoxib]
- activity against the GTPases in confirmatory dose response assays (words) (Ras-related GTPases): inactive

SMILES: CC(=O)Oc1ccccc1C(=O)O [Acetylsalicylic acid]
- Rac1 membrane localization [3]: did not alter

SMILES: CN1C(C(=O)Nc2ccccn2)=C(O)c2ccccc2S1(=O)=O [Piroxicam]
- Primary Screen Hit [2]: Inactive
